Data on one molecule can be found in article PMC6104039 (Nature Communications, 2018).

This assay relates to adipose tissue. As to the kind of experiment: Ceramide and SM species in epididymal adipose tissue. The format is in vivo, mice. Here is the method: Male C57BL6/J mice were obtained from the Animal Resources Centre in Perth (WA, Australia). Mice were housed at 22 ± 1 °C with a controlled 12:12 h light-dark cycle and had ad libitum access to water and either chow (8% calories from fat) or HFD (45% calories from fat)[66] for 4–6 weeks. […] Treatment was commenced at the same time as mice were randomised to dietary groups. The experiments were approved by the UNSW animal care and ethics committee (ACEC 15/48B), and followed guidelines issued by the National Health and Medical Research Council of Australia.
Lipids were extracted from frozen tissue samples or cells using a two-phase procedure with methyl-tert-butyl ether (MTBE)/methanol/water (10:3:2.5, v/v/v)[67]. Frozen tissue samples (~20 mg) were homogenized in 0.2 mL methanol containing 0.01% butylated hydroxytoluene (BHT), using a Precellys 24 homogenizer and Cryolys cooling unit (Bertin Technologies) with CK14 (1.4-mm ceramic) beads. The homogenates were spiked with an internal standard mixture comprising 5 nmole 19:0/19:0 phosphatidylcholine and 2 nmole each of 17:0/17:0 phosphatidylethanolamine, 17:0/17:0 phosphatidylserine, 17:0/17:0 d5-diacylglycerol, 17:0/17:0 phosphatidylglycerol, 14:0/14:0/14:0/14:0 cardiolipin, 18:1/12:0 SM, 18:1/17:0 ceramide, 18:1/12:0 glucosylceramide, 18:1/12:0 lactosylceramide, 18:1/12:0 sulfatide (all from Avanti Polar Lipids, USA), and 17:0/17:0/17:0 TAG (Cayman Chemical, USA), then transferred to 10 mL screw cap glass tubes. The homogenization tubes containing beads were then washed with another 0.3 mL methanol, and this wash was combined with the first methanol extract, after which 1.7 mL MTBE was added and the samples were sonicated in an ice-cold sonicating water bath (Thermoline Scientific, Australia) for 30 min. Phase separation was induced by addition of 417 µL of mass spectrometry-grade water followed by vortexing and centrifugation at 1000 × g for 10 min. The upper organic phase was collected into 5 mL glass tubes. The lower phase was re-extracted by adding 1 mL MTBE, 300 μL methanol, and 250 μL water. The organic phases were combined in the 5 mL glass tubes and dried under vacuum in a Savant SC210 SpeedVac (Thermo Scientific), then reconstituted in 500 μL methanol and stored at −20 °C until analysis.
Lipidomic profiling was performed on a QExactive Plus mass spectrometer with heated electrospray ionization (HESI) probe and a Dionex UltiMate 2000 LC pump (Thermo Fisher Scientific). Extracts were resolved on a 2.1 × 100 mm Waters Acquity C18 UPLC column (1.7 µm […]), using a binary gradient in which mobile phase A consisted of acetonitrile:water (60:40), 10 mM ammonium formate, 0.1% formic acid; and mobile phase B was isopropanol:acetonitrile (90:10), 10 mM ammonium formate, 0.1% formic acid[68]. The flow rate was 260 µL/min and column oven 55 °C. Data was acquired in full scan/data-dependent MS^2 mode (full scan resolution 70,000 FWHM, scan range 400–1200 m/z). The ten most abundant ions in each cycle were subjected to MS^2 using an isolation window of 1.4 m/z, collision energy 30 eV, resolution 17,500, maximum integration time 110 ms and dynamic exclusion window 10 s. An exclusion list of background ions was used based on a solvent blank. LipidSearch v4.1.30 software (ThermoFisher Scientific) was used for chromatogram alignment, peak identification and integration. Each lipid peak was manually verified for column elution time and characteristic fragment ions. Data were then exported to an Excel spreadsheet for normalisation of each lipid to its class-specific internal standard, and lipid concentrations were calculated relative to the internal standard.

[1] abbreviates: HFD + P053, individual values, raw data Fig 3l.
Setting [2] is: HFD + P053, individual values, raw data Fig 3m.

Each structure is given as a SMILES string. Values joined by “and” are separate entries in the source; they are usually repeats but may differ in a detail not shown here. Identical values can stand only once.

For the molecule `C[C@@](N)(CO)CCc1ccc(OCc2ccc(Cl)c(Cl)c2)cc1` [P053, (S)-2-amino-4-(4-(3,4-dichlorobenzyloxy)phenyl)-2-methylbutan-1-ol], under setting [1], the “Ceramide 18:1/16:0 content of white adipose tissue” value was 7.201 and 8.054 and 16.149 and 4.934 and 4.539 and 15.378 and 9.982 and 4.818 and 11.537 and 7.369; the “Ceramide 18:1/18:0 content of white adipose tissue” value was 2.978 and 2.646 and 5.343 and 1.908 and 1.464 and 4.498 and 3.784 and 2.039 and 3.490 and 2.759; the “Ceramide 18:1/20:0 content of white adipose tissue” value was 1.960 and 1.699 and 2.742 and 0.969 and 1.134 and 2.311 and 2.304 and 0.962 and 2.130 and 1.825; the “Ceramide 18:1/22:0 content of white adipose tissue” value was 2.875 and 3.855 and 6.655 and 3.344 and 2.629 and 5.839 and 6.468 and 2.833 and 3.815 and 4.292. In addition, under setting [1], the “Ceramide 18:1/24:0 content of white adipose tissue” value was 2.389 and 3.918 and 5.983 and 4.215 and 2.773 and 8.001 and 8.331 and 4.355 and 4.168 and 5.733; the “Ceramide 18:1/24:1 content of white adipose tissue” value is 6.096 and 8.629 and 13.174 and 7.744 and 4.866 and 14.789 and 13.116 and 7.511 and 9.181 and 8.543; the “Ceramide 18:2/18:0 content of white adipose tissue” value was 1.491 and 1.389 and 1.897 and 0.793 and 0.611 and 2.474 and 2.012 and 0.838 and 2.141 and 1.309; the “Ceramide 18:2/22:0 content of white adipose tissue” value is 1.850 and 2.082 and 3.075 and 1.861 and 1.560 and 3.228 and 3.861 and 1.939 and 2.443 and 2.309. Under setting [1], the “Ceramide 18:2/24:0 content of white adipose tissue” value was 2.470 and 3.270 and 4.398 and 3.698 and 2.656 and 6.741 and 6.951 and 4.253 and 4.048 and 5.078; the “Ceramide 18:2/24:1 content of white adipose tissue” value was 3.997 and 4.831 and 5.433 and 4.596 and 3.171 and 8.097 and 7.476 and 4.878 and 5.777 and 4.939. Under setting [2], the “SM 34:1 content of white adipose tissue” value is 138.16 and 152.76 and 183.91 and 125.06 and 78.40 and 408.02 and 164.42 and 164.75 and 189.26 and 180.12; the “SM 34:2 content of white adipose tissue” value was 3.94 and 4.36 and 5.23 and 3.24 and 2.75 and 11.91 and 3.96 and 4.10 and 5.05 and 4.63; the “SM 36:1 content of white adipose tissue” value was 30.80 and 33.18 and 60.02 and 24.06 and 21.10 and 82.70 and 34.64 and 35.42 and 37.81 and 37.83; the “SM 36:2 content of white adipose tissue” value was 13.65 and 13.63 and 9.26 and 9.31 and 4.59 and 33.15 and 15.13 and 9.69 and 16.44 and 14.20. Further, under setting [2], the “SM 38:1 content of white adipose tissue” value is 14.96 and 15.80 and 25.22 and 10.28 and 10.56 and 34.10 and 16.91 and 15.85 and 15.88 and 17.49; the “SM 38:2 content of white adipose tissue” value is 5.67 and 4.70 and 6.95 and 2.89 and 2.82 and 9.23 and 2.88 and 2.78 and 5.06 and 4.54; the “SM 40:1 content of white adipose tissue” value is 19.38 and 29.35 and 36.60 and 23.08 and 16.71 and 83.76 and 47.96 and 37.67 and 36.07 and 44.84; the “SM 40:2 content of white adipose tissue” value is 7.44 and 8.09 and 11.71 and 6.74 and 5.23 and 19.76 and 11.68 and 7.96 and 9.66 and 10.63. In addition, under setting [2], the “SM 42:1 content of white adipose tissue” value was 8.78 and 13.45 and 15.34 and 10.58 and 7.52 and 42.80 and 18.82 and 17.05 and 15.81 and 20.73; the “SM 42:2 content of white adipose tissue” value was 28.15 and 38.15 and 51.68 and 31.28 and 20.55 and 119.48 and 50.63 and 47.22 and 48.80 and 50.51; the “SM 42:3 content of white adipose tissue” value was 9.88 and 12.29 and 14.77 and 10.62 and 6.46 and 36.48 and 16.98 and 13.87 and 16.08 and 14.63. For the same molecule, the “C18 ceramide or SM and other ceramide or SM species in adipose tissue” value (chow or HFD) is “did not significantly impact”.
